SMILES | melting point
COc1ccc(C=CBr)cc1O | 64 to 66 °C
CC1(C)C(C(=O)Nc2ccccc2)C1(C)C | 149 °C
CC(C)Cc1ccc(C2(C)Oc3ccc(C(=O)O)cc3O2)cc1 (single isomer, unassigned; (-)) | 120 to 122 °C
CC(=C1SCCCS1)c1cccnc1 | 34 to 36 °C
COc1ccc2c(c1)C(=O)CC1(CCN(SCCc3cc(=O)n(C)c(=O)n3C)CC1)O2 | 191 to 194 °C
CN(C)c1nc(N)nc2c1sc(=O)n2C1OC(CO)C(O)C1O (stereo unspecified) | > 112 °C
COc1cccc(Cn2cc3c(-c4cccc(C(=O)NCCC#N)c4)cccc3n2)c1 | 176 to 177 °C
CC(=O)Nc1ccccc1OCCCN1CCC(c2noc3cc(F)ccc23)CC1 | 118 to 120 °C
CCCCCCN1CCN(Cc2ccc(N)cc2)C(=O)C1=O | 99 to 102 °C
C#CCCCC(=O)c1cc(C)c(O)c(C(C)(C)C)c1 | 63 to 64 °C
COc1cc(Nc2c(C#N)cnc3c(Br)csc23)c(Cl)cc1Cl | 265 to 266 °C
CNC(=S)NS(=O)(=O)c1cc(CCNC(=O)/C=C/c2cccs2)ccc1-c1ccco1 | 175 to 176 °C
COc1ccc(CN(Cc2ccc(OC)cc2)S(=O)(=O)c2ccc(N(CCS(C)(=O)=O)Cc3ccc(C)cc3)cc2)cc1 | 85.7 to 86.6 °C
CC(C)(C)OC(=O)Nc1cc(N2CCC(OC3CCCCO3)CC2)c(-c2ccc(F)cc2)cc1[N+](=O)[O-] (racemic) | 144 to 146 °C
COCN1C(=O)CN2CCOC2(c2ccccc2Cl)c2cc(Cl)ccc21 (stereo unspecified) | 144 to 147 °C
CCCCCCCCCCCCCCCCCCOc1cc(C(N)=O)cc(N(CC(=O)OCc2ccccc2)CC(=O)OCc2ccccc2)c1 | 112 to 114 °C
Oc1c(Sc2ccccc2)sc2ccccc12 | 71 to 73 °C
CCCCc1nc(C(C)(C)O)c(C(=O)OCOC(=O)OC(C)C)n1Cc1ccc(-c2ccccc2C(=O)O)cc1 | 154 to 156 °C
N=C(N)NCCCC(NC(=O)C(CS)Cc1ccccc1)C(=O)O (stereo unspecified) | 135 °C
Cn1cc(-c2cc3cccnc3[nH]2)c2cc(CCC(=O)O)ccc21 | 268 to 270 °C

SMILES | melting point
CC(C)(C)OC(=O)N[C@H](c1ccc(Cl)cc1)[C@H](c1ccc(Cl)cc1)[N+](=O)[O-] | 172 to 174 °C
CCCc1cccc(C2CCCC2)c1 | 90 °C
COc1cc(NC(=O)c2cc(C(C)C)c(C(C)C)o2)ccc1C(=O)O | 136 to 137 °C
CNc1cn(-c2cncc(F)c2)nc1Cl | 118 to 119 °C
O=C1c2c(-c3ccccc3)c3cc(Cl)ccc3n2CCN1CCN1CCCC1 | 134 to 136 °C
CC1(C)CC(=O)c2c(-c3ccccc3)cn(-c3ccccn3)c2C1 | 160 to 162 °C
CCOC(=O)c1cnc2c(c1Cl)CCCCCC2 | 33 to 36 °C
FC(F)(F)c1ccc2nc[nH]c2c1 | 89 to 91 °C
COc1cccc(-c2ccc3ccc(OC)cc3c2)c1 | 58 to 59 °C
COC(=O)NN(C(=O)Cl)c1cccc2c1OCC2 | 110 to 112 °C
COc1ccc(N2Cc3ccccc3P2(=O)C(C)C)cc1 (stereo unspecified) | 135 to 137 °C
CC(=O)c1ccc(-c2ccc(C#N)o2)cc1 | 122 to 125 °C
CCOC(=O)/C=C(C)/C=C/C=C(\C)C1=Cc2cc(C)ccc2OC1 | 135 °C
C=C1[C@H](CO)[C@H](O)[C@H](O)[C@H]1OCc1ccccc1 | 122 to 124 °C
CCCN(CCC)C1Cc2cccc(C(N)=O)c2NC1=O (stereo unspecified) | 214 to 217 °C
O=C1CC(c2cccc(-c3nc(C(=O)NCCO)co3)c2)=Nc2ccc(-n3cccc3)cc2N1 | 242 to 244 °C
O=c1[nH]c2cc(Cl)ccc2c(O)c1-c1cccc([N+](=O)[O-])c1 | 329 to 332 °C
O=C(c1cc(C(F)(F)F)cc(C(F)(F)F)c1)N1CCN(C(=O)CNC2CCN(Cc3ccccc3)CC2)C(c2ccccc2)C1 (racemic) | 65 to 67 °C
CC#CCOc1ccc(S(=O)(=O)NCCC(=O)NO)cc1 | 118 to 128 °C
CCOC(Nc1ccc(C(=O)O)cc1)C(=O)c1ccc(-c2ccccc2)cc1 (stereo unspecified) | 179 °C

SMILES | melting point
Cc1cc(Nc2ccc(C(C)(C)C)cc2)c2[nH]ncc2n1 | 258 to 262 °C
c1cc(Nc2nccc(-c3ccco3)n2)cc(-n2ccnc2)c1 | 175 to 178 °C
CCOC(=O)C1=C(C)S(=O)CCS1(=O)=O (stereo unspecified) | 138 to 140 °C
N#CCC(O)(c1ccccc1)c1ccccc1 | 136 to 138 °C
COc1cc2c(cc1Nc1ncc(Cl)c(Nc3ccccc3S(=O)(=O)N(C)C)n1)CCNC(=O)C2 | 190 to 195 °C
Cc1nnc2ccc(-c3ccc(C(C)(C)C)cc3)nn12 | 142 to 145 °C
CCOC(=O)c1c(CN(CC)CC)nc2sc3c(c2c1-c1ccc(OC)c(OC)c1)CCN(C(=O)c1ccccc1)C3 | 86 to 87 °C
O=C(c1ccccc1Cl)c1cc(Cl)ccc1-n1cnnc1CCl | 139 to 140 °C
CCC1(C)CN(c2c(F)c(N)c3c(=O)c(C(=O)O)cn(C4CC4)c3c2OC)CCC1N (stereo unspecified) | 210 °C
C#Cc1ccc(NC(=O)OC(C)(C)C)c([N+](=O)[O-])c1 | 102 °C
COC(=O)c1c(-c2ccc(OC)cc2)sc2cc(OC)ccc12 | 85.4 to 86.6 °C
O=C(NCCO)c1cccc(-c2ccc3c(c2)N(c2cccc(Cl)c2Cl)CC3)c1 | 162 to 163 °C
CCCn1nc2c(N)nc3ccccc3c2c1CC1(O)CCC1 | 191 to 193 °C
COc1nc(C)cnc1NS(=O)(=O)c1ccccc1-c1ccc(CC(C)C)c(N)c1 | 160 to 162 °C
Cc1cccc(OCC2=NCCN2S(C)(=O)=O)c1C | 142 to 143 °C
O=[N+]([O-])c1oc2cc(NS(=O)(=O)C(F)(F)F)ccc2c1-c1ccccc1 | 114 to 120 °C
CCN(CC)CCOc1ccc(Nc2ncc3c(=O)n(Cc4ccc(OC)cc4)c(=O)n(C(C)C)c3n2)cc1 | 139 to 141 °C
O=C(O)CN1C(=O)C2C3C=CC(CC3)C2C1=O (stereo unspecified) | 142 °C
CCOC(=O)CNc1ncccc1NC(=O)c1ccccc1OC | 111 to 112 °C

The remaining lines, values ahead:

melting point | SMILES
131 to 134 °C | CCOC(=O)c1csc(-c2ncccc2O)n1
235 to 236 °C | Nc1c(-c2cccnc2)nsc1C(=O)O
202 to 204 °C | CCCn1c(COCC)nc2c(N)nc3cc(OC4CCNCC4)ccc3c21
270 to 271 °C | O=C(c1ccn2c1CSC2c1cccnc1)c1c[nH]c2cc(-c3cccnc3)ccc12 (stereo unspecified)
148 °C | COC(=O)NNC(=S)Cc1ccc(Cl)cc1
180 to 182 °C | CC(O)c1ccc(F)c(-c2ccc3nc(-c4ccc(Cl)cc4)cn3c2)c1 (stereo unspecified)
190 °C | CSc1nc2cc(C)nn2c2ncccc12
179 to 180 °C | CN(C)C(=O)N1CCc2ccc(S(=O)(=O)NC(=O)NC3CCCC3)cc2CC1
159 to 160 °C | CCS(=O)(=O)Nc1nc(CN2CCN(C(c3ccccc3)c3ccccc3)CC2)cs1
215 to 216 °C | O=S1(=O)CCN2CCCC(c3ccc(Oc4ccc(Cl)cc4)cc3)C2=N1 (stereo unspecified)
88 to 90 °C | O=C(Nc1cccc(Br)c1)Oc1ccccc1
130 to 135 °C | O=C1NCC(c2ccc(Cl)cc2)C1c1ccccc1 (stereo unspecified)
144 to 146 °C | Clc1cccc2c3c([nH]c12)CCCC3
> 260 °C | FC(F)(F)c1cc2cc3cc4cc(Sc5ccccc5)c(Sc5ccccc5)cc4cc3cc2cc1C(F)(F)F
191 to 194 °C | Cc1nc(C)c(Cl)c(NCc2ccc(Oc3ccc4ncc([N+](=O)[O-])n4n3)c(OC(F)F)c2)n1
44 to 47 °C | CCCCCC(=O)C=Cc1ccc(Cl)cc1
60 to 61 °C | Cc1ccc(N)cc1/C=C/c1nc(C(C)C)cs1
58 to 59 °C | COC(=O)c1ccc(CCCOCCCCCNCC(O)c2cc(Cl)c(N)c(Cl)c2)o1 (stereo unspecified)
148 to 150 °C | CN1CC(=Cc2ccccc2Cl)C(=O)C(=Cc2ccccc2Cl)C1
> 290 °C | O=C1c2cccc(-n3c(=O)[nH]c4ncccc4c3=O)c2C2CCCCN12 (stereo unspecified)
114 to 116 °C | CN1CCC(c2cnc3ccc(C(=O)Nc4ccc(F)cc4)[nH]c2-3)CC1

melting point | SMILES
87 to 90 °C | CCCCOC(=O)c1ccc2c(C(=O)c3ccc(OCCN4CCCCC4)cc3)c(-c3ccc(O)cc3)sc2c1
162 to 164 °C | Cc1ccc(Cl)cc1NC(=S)NCC(N)=O
212 to 214 °C | CN1CCN(c2cccc3c2C[C@H](NC(=O)c2ccc(C(F)(F)F)cc2)CO3)CC1
87 to 88 °C | CCOC(=O)c1c2ccc(Cl)cc2c(-c2ccccc2)n1CCC(C)(C)CCBr
264 to 266 °C | Cn1cc(-c2cc3nccnc3[nH]2)c2ccccc21
205 to 211 °C | CC(C)(C)c1cc(C=Cc2ccccc2NC(=O)NC23CC4CC(CC(C4)C2)C3)cc(C(C)(C)C)c1O
147 to 149 °C | OC(CNC1=NCCN1)c1ccccc1 (stereo unspecified)
139 to 148 °C | CCCCCNc1nc(NCC(C)C)c2ncn(CC(=O)O)c2n1
171 to 172 °C | CCCn1c(=O)c2[nH]c(C3CCOCC3)nc2n(CCC)c1=O
220 to 222 °C | CSc1nc2c(cc1F)c(=O)[nH]c(=O)n2C1CC1
107 to 109 °C | CC(C)CCCC(C)C1CCC2C3C=CC4=CC(=O)C5OC5C4(C)C3CCC12C (stereo unspecified)
182 to 183 °C | COc1ccc2c(c1)CCc1nn(-c3nc4ccccc4s3)c(O)c1-2
82 to 83 °C | Oc1ccc(OCc2ccccc2)cc1OCc1ccccc1
208 to 211 °C | CSc1nc(C)c(Cc2cccnc2)c(=O)[nH]1
236 to 237 °C | Cn1ncc2c1-c1c(Oc3ccc(-c4ccc(F)cc4)nc3)sc(C(N)=O)c1CC2
170 to 171 °C | CCCOc1nc2ccccc2c2c1CNC2=O
136 to 137 °C | CN(C=C(C#N)C#N)c1ccc(Cl)cn1
125 to 127 °C | CCOc1ccc(C(=O)[C@H]2CC=CC[C@H]2C(=O)O)cc1OCC (relative stereo)
176 to 178 °C | O=C(O)[C@@H](Cc1ccccc1)NS(=O)(=O)N1CCN(c2ccc(Cl)cc2)CC1
71.5 to 73 °C | COC(=O)c1nc(N(C)C)ccc1OCc1ccccc1
108 to 109 °C | C=CCn1ccc(=O)[nH]c1=O

From a melting point compilation (Tetko et al.; mined from patent text by program, amines drawn as free bases though some values may be those of a salt)
